# Assay results as given in patent US10064843B2, “Bis-amide derivative and use thereof” (University-Industry Cooperation Group of Kyung Hee …, priority 2013, dated 2018).
# Where two headings read alike, the source gives them in different places.
# Experiments:
# [1] = test system: IL-2 production; assay: IL-2 concentration by ELISA in splenocytes; assay type: cell-based, mouse; conditions: up to 10 μM; FIG. 9c
# Method: Upon incubation, the cultures from three different wells were collected and IL-2 concentration was analyzed by ELISA according to the protocol by Enzo life Science (Plymouth Meeting, Pa., USA). IL-2 concentration was calculated based on the IL-2 standard solution.
# [2] = biological target: T1, CypA (Homo sapiens, UniProt P62937); assay: SPR binding of WJCPA-126 or CsA to CypA
# T1 construct: GST (N, cleaved yes); made in house; host or cells: E. coli (pGEX-KG)
# T1 sequence (P62937 whole entry): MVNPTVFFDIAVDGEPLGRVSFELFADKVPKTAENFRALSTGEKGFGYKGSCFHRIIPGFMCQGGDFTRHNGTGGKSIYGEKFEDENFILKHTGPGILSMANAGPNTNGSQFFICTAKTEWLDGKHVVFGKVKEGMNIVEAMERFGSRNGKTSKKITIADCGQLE
# Method: Example 4: Molecular Docking Analysis by Surface Plasmon Resonance (SPR)
# CypA protein was fixed on the sensor chip surface via free amine coupling by injecting a mixture of 0.1 M 1-ethyl-3-(3-dimethylaminopropyl) carboimidehydrochloride and 0.05 M N-hydroxysuccinimide thereon, and the extra activated carboxylic acid was inhibited using 1M ethanolamine (pH 8.5). The second reference cell was treated similarly while excluding the target protein. All working peptide dilutions were prepared in running buffer (PBS containing 0.2% DMSO) and injected at a rate of 30 μL/min for 3 minutes (association time) and dissociation phase was performed for 3 minutes. Nonspecific background was substracted from each sensogram using SPR_V4017 data collection and alignment program (Reichert, Depew, N.Y.). […] Optimum kinetic parameters were obtained by global fitting analysis using Scrubber2 (Biologic Software, Australia).
# [3] = test system: calcineurin; assay: Calcineurin phosphorylase analysis in splenocytes; assay type: cell-based, mouse; conditions: FIG. 8b
# Method: Example 6: Analysis of Calcineurin Phosphorylase
# Dephosphorylation of RH phosphopeptide was measured using calcineurin cell activity assay kit (Enzo Life sciences, Plymouth Meeting, Pa., USA) to determine calcium-dependent activity of calcineurin. Splenocytes (2×10^6/well) were incubated along with or WJCPA-126 for 20 hours, and further untreated or stimulated with 1 μg/mL of ionomycin (Calibiochem, La Jolla, Calif., USA). Then, the cells were used for the measurement of calcineurin activity.
# [4] = biological target: T2, CypB (Homo sapiens, UniProt P23284); assay: SPR binding of WJCPA-126 to CypB; conditions: SPR-based kinetic analysis
# T2 construct: GST (N); made in house; host or cells: E. coli (pGEX-KG)
# T2 sequence (P23284 34-216, species assumed): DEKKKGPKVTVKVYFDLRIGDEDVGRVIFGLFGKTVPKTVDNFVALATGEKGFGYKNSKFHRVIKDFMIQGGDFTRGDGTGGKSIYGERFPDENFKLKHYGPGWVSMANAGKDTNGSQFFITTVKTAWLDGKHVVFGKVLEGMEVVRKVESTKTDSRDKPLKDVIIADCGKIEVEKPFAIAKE
# [5] = test system: HCV replicon cell; assay: Combined treatment: HCV replicon RNA level by qRT-PCR, synergy analysis; assay type: cell-based, hepatitis C virus; conditions: in combination with telaprevir, IFN-α, or ribavirin vs. each alone; FIG. 16
# Method: (§1) Example 19: Real-Time Quantitative Reverse Transcriptase PCR Analysis
# (§2) Real-time quantitative reverse transcriptase PCR (qRT-PCR) was performed using SYBR Green PCR Master Mix (Invitrogen/Applied Biosystem, Carlsbad, Calif., USA) and ABI Prism 7300 Real-time PCR System (Applied Biosystems, Carlsbad, Calif., USA) according to the manufacturer's instructions. Calculations were performed based on […] method using the following equation: R (ratio)=2-[ΔCT (sample)-ΔCT (control group)]. The data were expressed as fold change of the treated group relative to the control group and standardized relative to the glyceraldehyde 3-phosphate dehydrogenase (GAPDH) level.
# Example 20: Synergy Analysis
# In order to confirm whether the combination between NIM811 and IFN-α, ribavirin, or telaprevir is synergistic, additive, or antagonistic, the combination index (CI) was calculated using the CalcuSyn Software (Biosoft). In fact, the combination is additive when CI=1.0, synergistic when CI<1.0, and antagonistic when CI>1.0.
# [6] = biological target: T1, CypA; assay: PPIase activity of CypA, coupled chymotrypsin analysis; assay type: biochemical
# Method: Example 5: Analysis of Peptidyl-Prolyl Cis-Trans Isomerase Activity
# The PPIase activity of CypA was determined according to a known method using the coupled chymotrypsin analysis.
# The cis-trans isomerization was measured by absorbance at 390 nm in a spectrophotometer. Additionally, the remaining percentage of enzyme activity was measured at different concentrations of the inhibitor to calculate the 50% inhibition concentration (IC50) to the PPIase activity. Data was optimized via graphs by exporting using Graph Pad Prism 5.
# [7] = test system: IL-8; assay: IL-8 mRNA and IL-8 ELISA in HCV replicon cell; assay type: cell-based, human; conditions: 2 μM
# Method: Example 11: Determination of IL-8 and INF-α Concentrations in Cell Culture Media by ELISA
# Upon incubation, the cell culture media were collected and the IL-8 and IFN-α concentrations were analyzed according to the protocol of eBioscience (San Diego, Calif., USA) by ELISA.
# as §1, §2
# [8] = biological target: T1, CypA; assay: 2D 1H TOCSY NMR of the WJCPA-126 and CypA complex; assay type: binding; conditions: FIG. 4
# Source text: In the spin system of […],[…], and […] of CypA, the connectivity was shown in yellow-, green-, and red solid lines. […] From the above result, it was confirmed that the bis-amide compounds of the present invention can specifically bind to […],[…], and […] residues of CypA thereby inhibiting the PPIase activity of CypA.
# [9] = test system: murine splenocytes; assay: MTT cytotoxicity in murine splenocytes; assay type: cell-based, mouse; conditions: up to 10 μM; FIG. 8a
# Method: Example 3: Isolation of Splenocytes from Mice and Cell Culture
# Seven to eight week-old female Balb/c mice were purchased from Orient Bio, Inc. (Sungnam, Korea). Experimental animals were allowed to maintain at a non-pathogenic environment and adapted before the experiment. Experimental mice were sacrificed by dislocation of spine, and the spleens collected therefrom were removed into petri dishes filled with RPMI containing 10% FBS, 100 units/mL of penicillin, and 100 μg/mL of streptomycin. The spleens were dispersed through a nylon mesh to prepare a single cell suspension, and RBC was depleted by using RBC lysis buffer (Sigma, St. Louis, Mo.). Splenocytes were washed and cultured in RPMI complete medium.
# Example 9: Analysis of Cytotoxicity
# Cytotoxicity was analyzed in a 96-well plate using 5 mg/mL of MTT (3-(4,5-dimethylthiasol-2-yl)-2,5-diphenyltetrazolium bromide). The optical density of cells was measured at 550 nm using a microplate reader (Bio-Rad, Richmond, Calif., USA). Cell viability rate was expressed in percentage of the absorbance of treated cells relative to the absorbance of untreated cells.
smiles,measurement,setting,value
"COc1cc(C(C(=O)NC2CCCCC2)N(C(=O)Cc2c[nH]c3ccccc23)c2ccc(C(C)C)cc2)cc(OC)c1OC (centres unmarked) [WJCPA-126, N-cyclohexyl-2-[(2-1H-indol-3-yl-acetyl)-(4-isopropyl-phenyl)-amino]-2-(3,4,5-trimethoxy-phenyl)-acetamide]",ionomycin-induced IL-2 production,[1],did not show any inhibitory activity
same,Koff (dissociation rate),[2]; SPR,6.0×10^−4 S^−1
same,Kon,[2]; SPR,8.2×10^3 M^−1 S^−1
same,Kd,"[2]; SPR-based kinetic analysis, CypA",520 nM
same,effect on ionomycin-stimulated calcineurin phosphorylase activity,[3],no inhibitory effect
same,Kd,[4],2100 nM
same,levels of HCV-specific RNA and IL-8 in combined treatment,[5],synergistic decrease
same,inhibitory effect against the PPIase activity of CypA,"[6]; 1 μM, 20 nM CypA, FIG. 3a",strong inhibitory effect
same,IC50,"[6]; FIG. 3b, read-out: IC50 PPIase activity",3.5 nM
same,IC50,"[6]; FIG. 7a, read-out: IC50 PPIase activity of CypA",3.6 nM
same,mRNA level of IL-8,[7]; FIG. 15b,significant reduction of mRNA level of IL-8 in a time-dependent manner
same,IL-8 production (ELISA),[7]; FIG. 15c,significantly reduces the expression of IL-8 production
same,binding residues of CypA by NMR,[8],"binds to Arg 55, Trp 121, and Phe 113 residues of CypA"
same,cytotoxicity in mouse splenocytes,[9],no cytotoxicity
